Measured values as given in patent US20100184596A1, “METHOD FOR THE CONTROL OF WEEDS IN TURF” (SYNGENTA CROP PROTECTION, INC., priority 2007, published 2010).

Experiments:
Type in all cases: in vivo
Bluegrass/fescue mix = assay: Phytotoxicity via post emergence spray application (Table B2.7); conditions: 1 appl
Experimental: The phytotoxicity of the compound of formula I to turfgrass species was tested. The compound was applied via post emergence spray to a range of warm and cool season turfgrass species at various rates and spray treatment treatment regimes. Percentage phytotoxicity assessments were taken at various timepoints.

[1] = system: Richardia scabra (Florida Pusley); assay: Weed control via post emergence spray, in common centipedegrass (Table B5.2)
Experimental: The weed control efficacy of the compound of formula I was tested. The compound was applied via post emergence spray to a range of weeds, at various rates and spray treatment treatment regimes. Percentage weed control assessments were taken at various timepoints.

[2] = system: Perennial ryegrass v. blend of Bright Star, Citation Fore and Quick Trans; assay: Phytotoxicity via granule application, various inert granules (Table B3.4); conditions: 8 DAT
Experimental: The phytotoxicity of the compound of formula I to turfgrass species was tested. The compound was applied by distribution of granule formulations of formula I, post emergence, to turfgrass species at two rates. All treatments were watered-in 1 day after application. Percentage phytotoxicity assessments were taken at various timepoints.
In Tables B3.3 and B3.4, the granular formulations tested were made by spraying the compound of formula I onto various inert granules. In each of these trials, the granule formulations were tested at a higher rate than the corresponding spray application

For `COCCOCc1nc(C(F)(F)F)ccc1C(=O)C1=C(O)C2CCC(C2)C1=O` (centres unmarked) [Formula I, 4-Hydroxy-3-[2-(2-methoxyethoxymethyl)-6-trifluoromethylpyridine-3-carbonyl]-bicyclo[3.2.1]oct-3-en-2-one], the “% phytotoxicity” value (Bluegrass/fescue mix; 10 g ai/ha, 7 DAT) was 0.00%, the “% phytotoxicity” value (Bluegrass/fescue mix; 10 g ai/ha, 14 DAT) was 0.00% and the “% phytotoxicity” value (Bluegrass/fescue mix; 10 g ai/ha, 22 DAT) was 0.00%. For the same compound, the “% phytotoxicity” value (Bluegrass/fescue mix; 10 g ai/ha, 29 DAT) was 0.00%, the “% phytotoxicity” value (Bluegrass/fescue mix; 10 g ai/ha, 46 DAT) was 0.00% and the “% phytotoxicity” value (Bluegrass/fescue mix; 20 g ai/ha, 7 DAT) was 0.00%. For the same compound, the “% phytotoxicity” value (Bluegrass/fescue mix; 20 g ai/ha, 14 DAT) was 0.00%, the “% phytotoxicity” value (Bluegrass/fescue mix; 20 g ai/ha, 22 DAT) was 0.00% and the “% phytotoxicity” value (Bluegrass/fescue mix; 20 g ai/ha, 29 DAT) was 0.00%. The “% phytotoxicity” value (Bluegrass/fescue mix; 20 g ai/ha, 46 DAT) was 0.00%, the “% phytotoxicity” value (Bluegrass/fescue mix; 40 g ai/ha, 7 DAT) was 0.00% and the “% phytotoxicity” value (Bluegrass/fescue mix; 40 g ai/ha, 14 DAT) was 0.00%. For the same compound, the “% phytotoxicity” value (Bluegrass/fescue mix; 40 g ai/ha, 22 DAT) was 0.00%, the “% phytotoxicity” value (Bluegrass/fescue mix; 40 g ai/ha, 29 DAT) was 0.00% and the “% phytotoxicity” value (Bluegrass/fescue mix; 40 g ai/ha, 46 DAT) was 0.00%. The “% phytotoxicity” value (Bluegrass/fescue mix; 80 g ai/ha, 7 DAT) was 0.00%, the “% phytotoxicity” value (Bluegrass/fescue mix; 80 g ai/ha, 14 DAT) was 0.00% and the “% phytotoxicity” value (Bluegrass/fescue mix; 80 g ai/ha, 22 DAT) was 0.00%. For the same compound, the “% phytotoxicity” value (Bluegrass/fescue mix; 80 g ai/ha, 29 DAT) was 0.00%, the “% phytotoxicity” value (Bluegrass/fescue mix; 80 g ai/ha, 46 DAT) was 0.00% and the “% phytotoxicity” value (Bluegrass/fescue mix; 160 g ai/ha, 7 DAT) was 0.00%. For the same compound, the “% phytotoxicity” value (Bluegrass/fescue mix; 160 g ai/ha, 14 DAT) was 2.50%, the “% phytotoxicity” value (Bluegrass/fescue mix; 160 g ai/ha, 22 DAT) was 0.00% and the “% phytotoxicity” value (Bluegrass/fescue mix; 160 g ai/ha, 29 DAT) was 0.00%. For the same compound, the “% phytotoxicity” value (Bluegrass/fescue mix; 160 g ai/ha, 46 DAT) was 0.00%, the “% control” value ([1]; 1 appl, 140 g ai/ha, 5 DAT) was 16.67% and the “% control” value ([1]; 1 appl, 140 g ai/ha, 13 DAT) was 25.00%. For the same compound, the “% control” value ([1]; 1 appl, 140 g ai/ha, 21 DAT) was 33.33%, the “% control” value ([1]; 1 appl, 140 g ai/ha, 27 DAT) was 33.33% and the “% control” value ([1]; 1 appl, 140 g ai/ha, 35 DAT) was 23.33%. For the same compound, the “% control” value ([1]; 1 appl, 140 g ai/ha, 42 DAT) was 16.67%, the “% control” value ([1]; 1 appl, 140 g ai/ha, 61 DAT) was 13.33% and the “% control” value ([1]; 1 appl, 280 g ai/ha, 5 DAT) was 20.00%. For the same compound, the “% control” value ([1]; 1 appl, 280 g ai/ha, 13 DAT) was 36.67%, the “% control” value ([1]; 1 appl, 280 g ai/ha, 21 DAT) was 46.67% and the “% control” value ([1]; 1 appl, 280 g ai/ha, 27 DAT) was 41.67%. The “% control” value ([1]; 1 appl, 280 g ai/ha, 35 DAT) was 38.33%, the “% control” value ([1]; 1 appl, 280 g ai/ha, 42 DAT) was 28.33% and the “% control” value ([1]; 1 appl, 280 g ai/ha, 61 DAT) was 38.33%. For the same compound, the “% control” value ([1]; 2 appl, 140 g ai/ha, 5 DAT) was 16.67%, the “% control” value ([1]; 2 appl, 140 g ai/ha, 13 DAT) was 20.00% and the “% control” value ([1]; 2 appl, 140 g ai/ha, 21 DAT) was 41.67%. The “% control” value ([1]; 2 appl, 140 g ai/ha, 27 DAT) was 33.33%, the “% control” value ([1]; 2 appl, 140 g ai/ha, 35 DAT) was 60.00% and the “% control” value ([1]; 2 appl, 140 g ai/ha, 42 DAT) was 53.33%. For the same compound, the “% control” value ([1]; 2 appl, 140 g ai/ha, 61 DAT) was 8.33%, the “% control” value ([1]; 2 appl, 280 g ai/ha, 5 DAT) was 16.67% and the “% control” value ([1]; 2 appl, 280 g ai/ha, 13 DAT) was 28.33%. For the same compound, the “% control” value ([1]; 2 appl, 280 g ai/ha, 21 DAT) was 46.67%, the “% control” value ([1]; 2 appl, 280 g ai/ha, 27 DAT) was 35.00% and the “% control” value ([1]; 2 appl, 280 g ai/ha, 35 DAT) was 61.67%. For the same compound, the “% control” value ([1]; 2 appl, 280 g ai/ha, 42 DAT) was 61.67%, the “% control” value ([1]; 2 appl, 280 g ai/ha, 61 DAT) was 16.67% and the “% phytotoxicity” value ([2]; Agsorb LUM GA granule, 520 g ai/ha) was 20.0%. The “% phytotoxicity” value ([2]; Agsorb LUM MS granule, 520 g ai/ha) was 5.8%, the “% phytotoxicity” value ([2]; Agsorb RUM GA granule, 520 g ai/ha) was 18.8% and the “% phytotoxicity” value ([2]; Bio Dac granule, 520 g ai/ha) was 13.3%. For the same compound, the “% phytotoxicity” value ([2]; DG Lite granule, 520 g ai/ha) was 18.8%, the “% phytotoxicity” value ([2]; Eco Gran granule, 520 g ai/ha) was 18.8% and the “% phytotoxicity” value ([2]; Non dispersing extruded granules, 520 g ai/ha) was 18.8%. For the same compound, the “% phytotoxicity” value ([2]; Oil dry, 520 g ai/ha) was 6.3% and the “% phytotoxicity” value ([2]; Spray, 260 g ai/ha) was 31.3%.
